Read-outs that look alike come from different tables or passages of the source.
What was measured:
[1] = type: physicochemical; settings: pH 7.3
SARS 3C-like proteinase [2] = target: T1, SARS 3C-like proteinase (Severe acute respiratory syndrome coronavirus, UniProt P0C6X7); settings: pH 7.3
SARS 3C-like proteinase [3] = target: T1, SARS 3C-like proteinase; settings: pH 7.3; remark: listed apart in the source
[4] = pH 7.3
[5] = target: SARS coronavirus 3C-like proteinase, C-terminal His6 tag (plasmid pET 3CLP-21x) (SARS coronavirus) (UniProt P0C6X7); assay: SEC

Row | Substance | Calculated secondary structure content: Helix [1] | Calculated secondary structure content: Other [1] | Calculated secondary structure content: Sheet [1] | Calculated secondary structure content: Tum [1] | Km (SARS 3C-like proteinase [2]) | kcat (SARS 3C-like proteinase [2]) | kcat/Km (SARS 3C-like proteinase [2]) | kcat/Km (SARS 3C-like proteinase [3]) | solubility [4] | Kd [5]
1 | ATVRLQ/AGNAT [Peptide S06] | 2 | 43 | 25 | 30 | 1440 ± 470 µM | 0.0548 ± 0.0178 s⁻¹ | 2.29 ± 0.09 ^a mM^-1 min^-1 | – | – | –
2 | FYPKLQ/ASQAW [Peptide S11] | 2 | 36 | 30 | 32 | 549 ± 105 µM | 0.0262 ± 0.00467 s⁻¹ | 2.86 ± 0.21 ^a mM^-1 min^-1 | – | – | –
3 | KVATVQ/SKMSD [Peptide S03] | 2 | 46 | 25 | 28 | – | – | – | 0.353 ± 0.013 ^b mM^-1 min^-1 | – | –
4 | NRATLQ/AIASE [Peptide S04] | 2 | 45 | 24 | 30 | – | – | – | 0.556 ± 0.126 ^b mM^-1 min^-1 | – | –
5 | NVATLQ/AENVT [Peptide S09] | – | – | – | – | – | – | – | 0.976 ± 0.014 ^b mM^-1 min^-1 | very low solubility | –
6 | PHTVLQ/AVGAC [Peptide S08] | 5 | 45 | 21 | 29 | 1940 ± 660 µM | 0.028 ± 0.0095 s⁻¹ | 0.865 ± 0.028 ^a mM^-1 min^-1 | – | – | –
7 | REPLMQ/SADAS [Peptide S07] | 1 | 41 | 18 | 40 | – | – | – | 0.0176 ± 0.0022 ^b mM^-1 min^-1 | – | –
8 | SARS coronavirus 3C-like proteinase, C-terminal His6 tag (plasmid pET 3CLP-21x) (from UniProt P0C6X7 3241-3546) (enzyme) | – | – | – | – | – | – | – | – | – | 100 µM
9 | SAVKLQ/NNELS [Peptide S05] | 10 | 44 | 19 | 27 | – | – | – | 0.202 ± 0.003 ^b mM^-1 min^-1 | – | –
10 | SGVTFQ/GKFKK [Peptide S02] | 3 | 31 | 42 | 24 | 583 ± 86 µM | 0.0425 ± 0.00583 s⁻¹ | 4.38 ± 0.26 ^a mM^-1 min^-1 | – | – | –
11 | TFTRLQ/SLENV [Peptide S10] | 4 | 41 | 22 | 33 | 286 ± 20 µM | 0.0141 ± 0.00085 s⁻¹ | 2.96 ± 0.11 ^a mM^-1 min^-1 | – | – | –
